Laboratory results as given in patent publication US4980365A, “N-substituted-5,6-dimethoxy-1,2-benzisoxazole-3-propanamine and related compounds as analgesic and hypotensive agents” (Hoechst-Roussel Pharmaceuticals Inc., priority 1987, dated 1990).
Where two headings read alike, the source gives them in different places.

Experiments:
[1] = system: spontaneous hypertensive rat; test: Antihypertensive activity in the spontaneous hypertensive rat, indirect tail cuff method; assay type: in vivo; conditions: at 50 mg/kg, p.o.; treated orally for three days, measured on the third day
Description: Compounds of the present invention are also useful as antihypertensive agents due to their ability to depress blood pressure in mammals. Antihypertensive activity is measured in the spontaneous hypertensive rat by the indirect tail cuff method described in "Methods in Pharmacology", A. Schwartz, Ed., Vol. I, Appleton-Century Crofts, New York, N.Y., 1971, p. 135. In this procedure a group of five animals are treated orally for three days with the test compound in relation to a control group of the same number. The drop in blood pressure is measured on the third day following administration. The antihypertensive activities of some of the compounds, expressed as a decrease in mean arterial blood pressure (in mm Hg), are given in Table 2.

[2] = system: 2-phenyl-1,4-benzoquinone-induced writhing; test: 2-phenyl-1,4-benzoquinone-induced writhing test in mice (analgesic activity, phenylquinone writhing); assay type: in vivo; conditions: Mus musculus, sc, read-out: ED50 (Analgesic Activity, Phenylquinone Writhing)
Text: Compounds of this invention having formula I are useful as analgesic agents due to their ability to alleviate pain in mammals. […] Exptl. Biol. Med. […], 729 (1957)].

α1-adrenergic receptor = test: [3H]-WB4101: α1-adrenergic receptor binding in rat brain; conditions: rat brain membranes minus cerebella, 0.5 nM 3H-WB4101, pH 7.7, 15 minutes; read-out: [3H]-WB4101: α1-Adrenergic Receptor (IC50) Antagonist Activity
Description: RECEPTOR BINDING IN RAT BRAIN
This in vitro [^3 H]-WB4101 receptor binding assay quantitates the primary blood pressure lowering effects through α1 -receptor blockade. […] WB4101 labels an antagonist binding site on the α1 -adrenoceptor, since it is preferentially displaced by antagonists while α-noradrenergic agonists preferentially displace the ^3 H-agonists
57.2 g Tris HCl 16.2 g Tris base q.s. to 1 liter (0.5M Tris buffer, pH 7.7 at 25° C.).
Make a 1:10 dilution in distilled H2 O (0.05M Tris Buffer, pH 7.7)
[Phenoxy-3-^3 H(N)]-WB4101, (2-(2,6-dimethoxyphenoxyethyl)aminomethyl-1,4-benzodioxane, (20-25 Ci/mmol) is obtained from New England Nuclear.
L-norepinephrine bitartrate is obtained from Sigma Chemical Co.
A 10 mM stock solution of norepinephrine is made up in 0.01N HCl and 20 micro liter added to three tubes to determine nonspecific binding. This yields a final concentration of 100 micro liter in the assay.
For most assays, a 1 mM stock solution is made up in a suitable solvent and serially diluted, such that the final concentration in the assay ranges from 10^-5 to 10^-8 M. Seven concentrations are usually used for each assay.
Male Wistar rats (100-150 g) are killed by decapitation and their brains rapidly removed. […]
Sample tubes are kept on ice for additions, then vortexed and incubated for 15 minutes at 15° C. […] The filters are counted in 10 ml of liquid scintillation cocktail. […]

Structure (SMILES)	Pressure Drop (decrease in mean arterial blood pressure) [1] [mmHg]	ED50 ([2]; mice) [mg/kg]	IC50 (α1-adrenergic receptor) [nM]	ED50 [2] [mg/kg]
COc1cc2onc(CCCN3CCN(c4ccccc4OC)CC3)c2cc1OC [3-[3-[4-(2-methoxyphenyl)-1-piperazinyl]propyl]-5,6-dimethoxy-1,2-benzisoxazole]	68	1.7		
COc1ccc([C@@H]2Sc3ccccc3N(CCN(C)C)C(=O)[C@@H]2OC(C)=O)cc1 [Diltiazem, reference compound]	39			
COc1cc2onc(CCCNCCc3ccccc3)c2cc1OC.Cl [N-(2-phenylethyl)-5,6-dimethoxy-1,2-benzisoxazole-3-propanamine hydrochloride]	32		83	
COc1cc2onc(CCCNCCc3ccc(F)cc3)c2cc1OC.Cl [N-[2-(4-fluorophenyl)ethyl]-5,6-dimethoxy-1,2-benzisoxazole-3-propanamine hydrochloride]		3.8		
COc1cc2onc(CCCN(C)CCc3ccccc3)c2cc1OC.O=C(O)C(=O)O [N-methyl-N-(2-phenylethyl)-5,6-dimethoxy-1,2-benzisoxazole-3-propanamine oxalate]		13.6	67	
CC(C)=CCN1CCC2(C)c3cc(O)ccc3CC1C2C (stereo not drawn) [pentazocine, reference compound]				1.3
